The assay concerns the target T1, human V1a receptor (Homo sapiens, UniProt P37288).
T1 construct: host or cells: CHO cells
Nature of the assay: Human vasopressin V1a receptor binding assay. The settings on record: hV1a cell line (CHO), competition with 1 nM 3H-AVP, 45 minutes at 37° C.; read-out: V1a BINDING AFFINITY (IC50 (nM)). As to the method:
Human Vasopression V1a Receptor Binding Assay.
A cell line expressing the human V1a receptor in CHO cells (henceforth referred to as the hV1a cell line) was obtained from Dr. Michael Brownstein, NIMH, Bethesda, Md., USA. The hV1a cDNA sequence is described by Thibonnier et al., Journal of Biological Chemistry, 269, 3304-3310 (1994), and the expression method was the same as described by Morel et al. (1992). The hV1a cell line was grown in alpha-MEM with 10% fetal bovine serum and 250 ug/ml G418 (Gibco, Grand Island, N.Y., USA). For competitive binding assay, hV1a cells were plated into 6-well culture plate at 1:10 dilution from a confluency flask, and maintained in culture for at least two days. Culture medium was then removed, cells were washed with 2 ml binding buffer (25 mM Hepes, 0.25% BSA, 1×DMEM, PH=7.0). To each well, 990 μl binding buffer containing 1 nM 3H-AVP was added, and followed by 10 μl series diluted Example compounds dissolved in DMSO. […] 100 nM cold AVP (Sigma) was used to assess non-specific binding. Cells were incubated for 45 minutes at 37° C., assay mixture was removed and each well was washed three times with PBS (pH=7.4). 1 ml 2% SDS was added per well and plates were let sit for 30 minutes. The whole content in a well was transferred to a scintillation vial. Each well was rinsed with 0.5 ml PBS which was then added to the corresponding vial. Scintillation fluid (Ecoscint, National Diagnostics, Atlanta, Ga.) was then added at 3 ml per vial. Samples were counted in a liquid scintillation counter (Beckman LS3801). IC50 values were calculated by Prism Curve fitting software.
All of the alkanedioic esters and amides exemplified in the foregoing examples were tested in this assay described of Example 201.

T1 sequence (P37288 whole entry): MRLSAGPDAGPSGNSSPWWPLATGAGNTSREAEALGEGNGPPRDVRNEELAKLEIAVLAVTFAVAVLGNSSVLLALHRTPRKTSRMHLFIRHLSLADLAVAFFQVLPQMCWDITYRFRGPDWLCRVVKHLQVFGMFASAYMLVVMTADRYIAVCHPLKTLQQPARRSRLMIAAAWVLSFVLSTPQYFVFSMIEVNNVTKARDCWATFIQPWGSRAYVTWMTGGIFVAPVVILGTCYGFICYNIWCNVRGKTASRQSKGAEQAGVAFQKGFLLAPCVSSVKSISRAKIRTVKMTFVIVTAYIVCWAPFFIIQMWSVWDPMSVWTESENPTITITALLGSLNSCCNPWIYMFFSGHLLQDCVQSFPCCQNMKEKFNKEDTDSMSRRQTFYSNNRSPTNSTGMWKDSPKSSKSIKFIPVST

As to `CC(C)(C)OC(=O)C(C(=O)NCc1cccc(C(F)(F)F)c1)N1C(=O)[C@@H](N2C(=O)OC[C@@H]2c2ccccc2)[C@H]1/C=C/c1ccccc1` (mixture of isomers) [Example 18, 2(RS)-(tert-Butoxycarbonyl)-2-[3(S)-(4(S)-phenyloxazolidin-2-on-3-yl)-4(R)-(2-styryl)azetidin-2-on-1-yl]acetic acid N-(3-trifluoromethylbenzyl)amide], the IC50 (in general, the point on the concentration scale where inhibition reaches its midpoint) was found to be 35 nM.

Take `O=C(NCc1cccc(C(F)(F)F)c1)C(C(=O)N1CCC(N2CCCCC2)CC1)N1C(=O)[C@@H](N2C(=O)OC[C@@H]2c2ccccc2)[C@H]1/C=C/c1ccccc1` (mixture of isomers) [Example 37]: the IC50 stood at 5.5 nM. Then `O=C(NCc1cccc(C(F)(F)F)c1)C(C(=O)N1CCN(CCc2ccccc2)CC1)N1C(=O)[C@@H](N2C(=O)OC[C@@H]2c2ccccc2)[C@H]1/C=C/c1ccccc1` (mixture of isomers) [Example 38], with below 25 nM.

With `O=C(NCc1cccc(C(F)(F)F)c1)C(C(=O)NC1CCN(Cc2ccccc2)CC1)N1C(=O)[C@@H](N2C(=O)OC[C@@H]2c2ccccc2)[C@H]1/C=C/c1ccccc1` (mixture of isomers) [Example 39], the IC50 is 23 nM. Then `CCCCN1CCN(C(=O)C(C(=O)NCc2cccc(C(F)(F)F)c2)N2C(=O)[C@@H](N3C(=O)OC[C@@H]3c3ccccc3)[C@H]2/C=C/c2ccccc2)CC1` (mixture of isomers) [Example 40], with 11 nM; and `CC(C)N1CCN(C(=O)C(C(=O)NCc2cccc(C(F)(F)F)c2)N2C(=O)[C@@H](N3C(=O)OC[C@@H]3c3ccccc3)[C@H]2/C=C/c2ccccc2)CC1` (mixture of isomers) [Example 41], with below 20 nM; and `O=C(NCc1cccc(C(F)(F)F)c1)C(C(=O)N1CCN(C2CCCCC2)CC1)N1C(=O)[C@@H](N2C(=O)OC[C@@H]2c2ccccc2)[C@H]1/C=C/c1ccccc1` (mixture of isomers) [Example 42], with below 20 nM.

With `CCCCN1CCN(C(=O)CCC(C(=O)NCc2cccc(C(F)(F)F)c2)N2C(=O)C(N3C(=O)OCC3c3ccccc3)C2C=Cc2ccccc2)CC1` (single isomer, unassigned) [Example 103], the IC50 worked out at 0.81 nM. Consider `CC(C)N1CCN(C(=O)CCC(C(=O)NCc2cccc(C(F)(F)F)c2)N2C(=O)C(N3C(=O)OCC3c3ccccc3)C2C=Cc2ccccc2)CC1` (single isomer, unassigned) [Example 104], for which the IC50 was 1.85 nM. On to `CC(C)(C)OC(=O)C[C@@H](C(=O)NCc1cccc(C(F)(F)F)c1)N1C(=O)[C@@H](N2C(=O)OC[C@@H]2c2ccccc2)[C@H]1/C=C/c1ccccc1` [Example 19, 2(S)-(tert-Butoxycarbonylmethyl)-2-[3(S)-(4(S)-phenyloxazolidin-2-on-3-yl)-4(R)-(2-styryl)azetidin-2-on-1-yl]acetic acid N-(3-trifluoromethylbenzyl)amide], for which the half-inhibitory concentration (IC50) came to 35 nM. Consider `CC(C)(C)OC(=O)CC[C@@H](C(=O)NCc1cccc(C(F)(F)F)c1)N1C(=O)[C@@H](N2C(=O)OC[C@@H]2c2ccccc2)[C@H]1/C=C/c1ccccc1` [Example 20, 2(S)-(tert-Butoxycarbonylethyl)-2-[3(S)-(4(S)-phenyloxazolidin-2-on-3-yl)-4(R)-(2-styryl)azetidin-2-on-1-yl]acetic acid N-(3-trifluoromethylbenzyl)amide], for which the IC50 was 35 nM. Then `CCCCN1CCN(C(=O)C[C@@H](C(=O)NCc2cccc(C(F)(F)F)c2)N2C(=O)[C@@H](N3C(=O)OC[C@@H]3c3ccccc3)[C@H]2/C=C/c2ccccc2)CC1` [Example 59], with below 100 nM. Take `O=C(C[C@@H](C(=O)NCc1cccc(C(F)(F)F)c1)N1C(=O)[C@@H](N2C(=O)OC[C@@H]2c2ccccc2)[C@H]1/C=C/c1ccccc1)NC1CCN(Cc2ccccc2)CC1` [Example 63]: the IC50 came to 1.84 nM. As for `O=C(NCc1cccc(C(F)(F)F)c1)[C@H](CC(=O)N1CCN(C2CCCCC2)CC1)N1C(=O)[C@@H](N2C(=O)OC[C@@H]2c2ccccc2)[C@H]1/C=C/c1ccccc1` [Example 66], the figure is around 50 nM; as for `O=C(NCc1cccc(C(F)(F)F)c1)[C@H](CC(=O)N1CCN(C2CCCC2)CC1)N1C(=O)[C@@H](N2C(=O)OC[C@@H]2c2ccccc2)[C@H]1/C=C/c1ccccc1` [Example 77], below 100 nM; as for `O=C(NCc1cccc(C(F)(F)F)c1)[C@H](CC(=O)N1CCN(CCN2CCCC2)CC1)N1C(=O)[C@@H](N2C(=O)OC[C@@H]2c2ccccc2)[C@H]1/C=C/c1ccccc1` [Example 78], below 100 nM. For `CCN(CC)CCN1CCN(C(=O)C[C@@H](C(=O)NCc2cccc(C(F)(F)F)c2)N2C(=O)[C@@H](N3C(=O)OC[C@@H]3c3ccccc3)[C@H]2/C=C/c2ccccc2)CC1` [Example 81], the IC50 is below 100 nM. For `O=C(NCc1cccc(C(F)(F)F)c1)[C@H](CC(=O)N1CCCN(Cc2ccccc2)CC1)N1C(=O)[C@@H](N2C(=O)OC[C@@H]2c2ccccc2)[C@H]1/C=C/c1ccccc1` [Example 82], the IC50 is below 50 nM. As for `O=C(C[C@@H](C(=O)NCc1cccc(C(F)(F)F)c1)N1C(=O)[C@@H](N2C(=O)OC[C@@H]2c2ccccc2)[C@H]1/C=C/c1ccccc1)N[C@H]1CCN(Cc2ccccc2)C1` [Example 85], the figure is 5.87 nM; as for `O=C(CC[C@@H](C(=O)NCc1cccc(C(F)(F)F)c1)N1C(=O)[C@@H](N2C(=O)OC[C@@H]2c2ccccc2)[C@H]1/C=C/c1ccccc1)NCCN1CCCCC1` [Example 87], 15 nM; as for `O=C(NCc1cccc(C(F)(F)F)c1)[C@H](CCC(=O)N1CCN(N2CCCC2)CC1)N1C(=O)[C@@H](N2C(=O)OC[C@@H]2c2ccccc2)[C@H]1/C=C/c1ccccc1` [Example 91], 3.24 nM. As for `O=C(NCc1cccc(C(F)(F)F)c1)[C@H](CCC(=O)N1CCN(Cc2ccccc2)CC1)N1C(=O)[C@@H](N2C(=O)OC[C@@H]2c2ccccc2)[C@H]1/C=C/c1ccccc1` [Example 95], the figure is 1.76 nM; as for `O=C(NCc1cccc(C(F)(F)F)c1)[C@H](CCC(=O)N1CCN(Cc2ccc3c(c2)OCO3)CC1)N1C(=O)[C@@H](N2C(=O)OC[C@@H]2c2ccccc2)[C@H]1/C=C/c1ccccc1` [Example 96], 4.35 nM. As for `CN(C)CCNC(=O)CC[C@@H](C(=O)NCc1cccc(C(F)(F)F)c1)N1C(=O)[C@@H](N2C(=O)OC[C@@H]2c2ccccc2)[C@H]1/C=C/c1ccccc1` [Example 100], the figure is below 100 nM; as for `O=C(NCc1cccc(C(F)(F)F)c1)[C@H](CCC(=O)N1CCN(CC(=O)N2CCCC2)CC1)N1C(=O)[C@@H](N2C(=O)OC[C@@H]2c2ccccc2)[C@H]1/C=C/c1ccccc1` [Example 101], around 100 nM; as for `CN1CCC(N2CCN(C(=O)CC[C@@H](C(=O)NCc3cccc(C(F)(F)F)c3)N3C(=O)[C@@H](N4C(=O)OC[C@@H]4c4ccccc4)[C@H]3/C=C/c3ccccc3)CC2)CC1` [Example 102], below 100 nM. In the case of `CN(C)CCCNC(=O)CC[C@@H](C(=O)NCc1cccc(C(F)(F)F)c1)N1C(=O)[C@@H](N2C(=O)OC[C@@H]2c2ccccc2)[C@H]1/C=C/c1ccccc1` [Example 106], the 50% inhibitory concentration (IC50) was around 100 nM. Then `O=C(CC[C@@H](C(=O)NCc1cccc(C(F)(F)F)c1)N1C(=O)[C@@H](N2C(=O)OC[C@@H]2c2ccccc2)[C@H]1/C=C/c1ccccc1)NC1CCN(Cc2ccccc2)CC1` [Example 107], with below 50 nM. As for `CN(C)CCN(Cc1ccccc1)C(=O)CC[C@@H](C(=O)NCc1cccc(C(F)(F)F)c1)N1C(=O)[C@@H](N2C(=O)OC[C@@H]2c2ccccc2)[C@H]1/C=C/c1ccccc1` [Example 108], the figure is around 100 nM; as for `O=C(CC[C@@H](C(=O)NCc1cccc(C(F)(F)F)c1)N1C(=O)[C@@H](N2C(=O)OC[C@@H]2c2ccccc2)[C@H]1/C=C/c1ccccc1)NCc1cccnc1` [Example 109], around 100 nM. As to `O=C(NCc1cccc(C(F)(F)F)c1)[C@H](CCC(=O)N1CCN(CCC2CCCCC2)CC1)N1C(=O)[C@@H](N2C(=O)OC[C@@H]2c2ccccc2)[C@H]1/C=C/c1ccccc1` [Example 111], the IC50 was 1.31 nM. As for `O=C(NCc1cccc(C(F)(F)F)c1)[C@H](CCC(=O)N1CCN(CCN2CCOCC2)CC1)N1C(=O)[C@@H](N2C(=O)OC[C@@H]2c2ccccc2)[C@H]1/C=C/c1ccccc1` [Example 112], the figure is 1.34 nM; as for `O=C(NCc1cccc(C(F)(F)F)c1)[C@H](CCC(=O)N1CCN(CC2CCCCC2)CC1)N1C(=O)[C@@H](N2C(=O)OC[C@@H]2c2ccccc2)[C@H]1/C=C/c1ccccc1` [Example 120], 0.75 nM; as for `O=C(NCc1cccc(C(F)(F)F)c1)[C@@H](CCC(=O)N1CCC(N2CCCCC2)CC1)N1C(=O)[C@@H](N2C(=O)OC[C@@H]2c2ccccc2)[C@H]1/C=C/c1ccccc1` [Example 135], around 50 nM. For the compound `O=C(NCc1cccc(C(F)(F)F)c1)[C@@H](CCC(=O)N1CCN(CCc2ccccc2)CC1)N1C(=O)[C@@H](N2C(=O)OC[C@@H]2c2ccccc2)[C@H]1/C=C/c1ccccc1` [Example 136], the IC50 was 11 nM.

For the origin of these results see patent publication US7268125B2 (Azevan Pharmaceuticals, Inc., priority 2001, dated 2007).
